# From US20180015100A1, “COMBINATION PRODUCTS FOR THE TREATMENT OF BACTERIAL INFECTIONS AND METHODS OF PRODUCING OR DOSING OF SAME” (priority 2016, published 2018)
# Tests used:
# [1] = system: 385 Escherichia coli and 126 Klebsiella pneumoniae isolates; test: MIC, MIC50 and MIC90 by reference broth microdilution against 511 UTI/bloodstream isolates (USA and Europe 2014-2015); format: cell-based
# [2] = system: E. coli (ATCC 25922); test: One-compartment in vitro chemostat infection model, ceftibuten alone; format: cell-based
# Protocol: Becton, Dickinson and Company, Sparks, Md.) and placed in a water bath at 35° C. Magnetic stirrers were used for consistent mixing of the contents during the experiment. […] For each drug exposure/bacteria combination, the experiment was conducted over 24 hours and consisted of a drug free control and two experimental (i.e., drug containing) replicate models. Data from the two replicate models were treated as independent exposures given there is some expected variability in obtained concentrations due to small inconsistencies in volume flows between the chemostat models. A peristaltic pump (Masterflex L/S model 7524-40; Cole-Parmer, Vernon Hills, Ill.) was set to infuse CAMHB into the models at a desired elimination rate for the drug. Broth samples were collected from the model throughout the experiment to determine free drug concentrations and bacterial density. Antibiotic carryover was minimized by serial dilution of samples. Bacterial density was counted after 18-24 hours incubation at 37° C. […] Time-kill curves were constructed by plotting the log10 CFU/mL against time. […] The control models served to define 0% fT>MIC results. […] Drug concentrations were assessed at the peak and trough of each administered dose to achieve the desired exposure and at least one other midpoint concentration for each interval. […] The change in log10 CFU/ml at 24 hours was the primary endpoint for exposure response relationship. […] Mountain View, Calif.).
smiles,measurement,setting,value
"Nc1nc(/C(=C/CC(=O)O)C(=O)N[C@@H]2C(=O)N3C(C(=O)O)=CCS[C@H]23)cs1 [Ceftibuten, ceftibuten]",cumulative % of isolates at MIC,"[1]; MIC 1 μg/mL, All CTX-M-producing E. coli (294)",(22.1) %
same,cumulative % of isolates at MIC,"[1]; MIC 1 μg/mL, All CTX-M-producing K pneumoniae (71)",(9.9) %
same,cumulative % of isolates at MIC,"[1]; MIC 1 μg/mL, All CTX-M-producing isolates (365)",(19.7) %
same,cumulative % of isolates at MIC,"[1]; MIC 1 μg/mL, E. coli (385)",(19.7) %
same,cumulative % of isolates at MIC,"[1]; MIC 1 μg/mL, Isolates producing CTX-M Group 1 (276)",(9.1) %
same,cumulative % of isolates at MIC,"[1]; MIC 1 μg/mL, Isolates producing CTX-M Group 9 (92)",(50.0) %
same,cumulative % of isolates at MIC,"[1]; MIC 1 μg/mL, Isolates producing SHV ESBL (18)",(55.6) %
same,cumulative % of isolates at MIC,"[1]; MIC 1 μg/mL, K pneumoniae (126)",(15.1) %
same,cumulative % of isolates at MIC,"[1]; MIC 2 μg/mL, All CTX-M-producing E. coli (294)",(34.4) %
same,cumulative % of isolates at MIC,"[1]; MIC 2 μg/mL, All CTX-M-producing K pneumoniae (71)",(15.5) %
same,cumulative % of isolates at MIC,"[1]; MIC 2 μg/mL, All CTX-M-producing isolates (365)",(30.7) %
same,cumulative % of isolates at MIC,"[1]; MIC 2 μg/mL, E. coli (385)",(30.4) %
same,cumulative % of isolates at MIC,"[1]; MIC 2 μg/mL, Isolates producing CTX-M Group 1 (276)",(15.2) %
same,cumulative % of isolates at MIC,"[1]; MIC 2 μg/mL, Isolates producing CTX-M Group 9 (92)",(76.1) %
same,cumulative % of isolates at MIC,"[1]; MIC 2 μg/mL, Isolates producing SHV ESBL (18)",(61.1) %
same,cumulative % of isolates at MIC,"[1]; MIC 2 μg/mL, K pneumoniae (126)",(19.0) %
same,cumulative % of isolates at MIC,"[1]; MIC 4 μg/mL, All CTX-M-producing E. coli (294)",(45.6) %
same,cumulative % of isolates at MIC,"[1]; MIC 4 μg/mL, All CTX-M-producing K pneumoniae (71)",(32.4) %
same,cumulative % of isolates at MIC,"[1]; MIC 4 μg/mL, All CTX-M-producing isolates (365)",(43.0) %
same,cumulative % of isolates at MIC,"[1]; MIC 4 μg/mL, E. coli (385)",(40.0) %
same,cumulative % of isolates at MIC,"[1]; MIC 4 μg/mL, Isolates producing CTX-M Group 1 (276)",(28.3) %
same,cumulative % of isolates at MIC,"[1]; MIC 4 μg/mL, Isolates producing CTX-M Group 9 (92)",(87.0) %
same,cumulative % of isolates at MIC,"[1]; MIC 4 μg/mL, Isolates producing SHV ESBL (18)",(66.7) %
same,cumulative % of isolates at MIC,"[1]; MIC 4 μg/mL, K pneumoniae (126)",(31.7) %
same,cumulative % of isolates at MIC,"[1]; MIC 8 μg/mL, All CTX-M-producing E. coli (294)",(66.3) %
same,cumulative % of isolates at MIC,"[1]; MIC 8 μg/mL, All CTX-M-producing K pneumoniae (71)",(56.3) %
same,cumulative % of isolates at MIC,"[1]; MIC 8 μg/mL, All CTX-M-producing isolates (365)",(64.4) %
same,cumulative % of isolates at MIC,"[1]; MIC 8 μg/mL, E. coli (385)",(56.9) %
same,cumulative % of isolates at MIC,"[1]; MIC 8 μg/mL, Isolates producing CTX-M Group 1 (276)",(55.8) %
same,cumulative % of isolates at MIC,"[1]; MIC 8 μg/mL, Isolates producing CTX-M Group 9 (92)",(89.1) %
same,cumulative % of isolates at MIC,"[1]; MIC 8 μg/mL, Isolates producing SHV ESBL (18)",(72.2) %
same,cumulative % of isolates at MIC,"[1]; MIC 8 μg/mL, K pneumoniae (126)",(53.2) %
same,cumulative % of isolates at MIC,"[1]; MIC 16 μg/mL, All CTX-M-producing E. coli (294)",(83.0) %
same,cumulative % of isolates at MIC,"[1]; MIC 16 μg/mL, All CTX-M-producing K pneumoniae (71)",(73.2) %
same,cumulative % of isolates at MIC,"[1]; MIC 16 μg/mL, All CTX-M-producing isolates (365)",(81.1) %
same,cumulative % of isolates at MIC,"[1]; MIC 16 μg/mL, E. coli (385)",(73.0) %
same,cumulative % of isolates at MIC,"[1]; MIC 16 μg/mL, Isolates producing CTX-M Group 1 (276)",(76.8) %
same,cumulative % of isolates at MIC,"[1]; MIC 16 μg/mL, Isolates producing CTX-M Group 9 (92)",(92.4) %
same,cumulative % of isolates at MIC,"[1]; MIC 16 μg/mL, Isolates producing SHV ESBL (18)",(94.4) %
same,cumulative % of isolates at MIC,"[1]; MIC 16 μg/mL, K pneumoniae (126)",(69.0) %
same,cumulative % of isolates at MIC,"[1]; MIC >[…] μg/mL, All CTX-M-producing E. coli (294)",(100.0) %
same,cumulative % of isolates at MIC,"[1]; MIC >[…] μg/mL, All CTX-M-producing K pneumoniae (71)",(100.0) %
same,cumulative % of isolates at MIC,"[1]; MIC >[…] μg/mL, All CTX-M-producing isolates (365)",(100.0) %
same,cumulative % of isolates at MIC,"[1]; MIC >[…] μg/mL, E. coli (385)",(100.0) %
same,cumulative % of isolates at MIC,"[1]; MIC >[…] μg/mL, Isolates producing CTX-M Group 1 (276)",(100.0) %
same,cumulative % of isolates at MIC,"[1]; MIC >[…] μg/mL, Isolates producing CTX-M Group 9 (92)",(100.0) %
same,cumulative % of isolates at MIC,"[1]; MIC >[…] μg/mL, Isolates producing SHV ESBL (18)",(100.0) %
same,cumulative % of isolates at MIC,"[1]; MIC >[…] μg/mL, K pneumoniae (126)",(100.0) %
same,cumulative % of isolates at MIC,"[1]; MIC […] μg/mL, All CTX-M-producing E. coli (294)",(91.8) %
same,cumulative % of isolates at MIC,"[1]; MIC […] μg/mL, All CTX-M-producing K pneumoniae (71)",(83.1) %
same,cumulative % of isolates at MIC,"[1]; MIC […] μg/mL, All CTX-M-producing isolates (365)",(90.1) %
same,cumulative % of isolates at MIC,"[1]; MIC […] μg/mL, E. coli (385)",(82.1) %
same,cumulative % of isolates at MIC,"[1]; MIC […] μg/mL, Isolates producing CTX-M Group 1 (276)",(87.7) %
same,cumulative % of isolates at MIC,"[1]; MIC […] μg/mL, Isolates producing CTX-M Group 9 (92)",(95.7) %
same,cumulative % of isolates at MIC,"[1]; MIC […] μg/mL, Isolates producing SHV ESBL (18)",(94.4) %
same,cumulative % of isolates at MIC,"[1]; MIC […] μg/mL, K pneumoniae (126)",(79.4) %
same,cumulative % of isolates at MIC,"[1]; MIC […], Enterobacteriaceae (511)",(5.1) %
same,fT > MIC for 1-log CPU reduction,"[2]; 24 hours, Emax model",58.5%
same,fT > MIC for 2-log CPU reduction,"[2]; 24 hours, Emax model",66.0%
same,fT > MIC for Stasis,"[2]; 24 hours, Emax model",53.7%
same,MIC,"[2]; Escherichia coli, ATCC25922",0.25 µg/mL
